We go through 5 compounds from patent US12252524B2, “GIP/GLP1 co-agonist compounds” (Eli Lilly and Company, priority 2018, dated 2025).

Assay [1] deals with T1, gastric inhibitory peptide receptor (GIPR) (Homo sapiens, UniProt P48546).
T1 sequence (P48546 22-466): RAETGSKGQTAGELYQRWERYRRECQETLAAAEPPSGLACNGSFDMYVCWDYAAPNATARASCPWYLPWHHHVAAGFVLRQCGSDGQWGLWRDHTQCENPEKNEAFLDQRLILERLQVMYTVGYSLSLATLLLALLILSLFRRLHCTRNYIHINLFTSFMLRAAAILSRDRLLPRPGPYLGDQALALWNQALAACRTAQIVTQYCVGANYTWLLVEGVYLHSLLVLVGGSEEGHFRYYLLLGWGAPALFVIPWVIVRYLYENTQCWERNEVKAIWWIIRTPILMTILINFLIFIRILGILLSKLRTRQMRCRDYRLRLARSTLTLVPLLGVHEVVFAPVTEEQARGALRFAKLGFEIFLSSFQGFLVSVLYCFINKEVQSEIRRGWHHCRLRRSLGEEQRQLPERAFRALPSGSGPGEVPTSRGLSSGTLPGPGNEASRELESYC
The assay can be described thus: cAMP pharmacological functional assay in presence of casein, hGIPR. In kind it is cell-based. The settings on record: HEK293 cells expressing hGIPR, 0.1% Casein, geometric mean; read-out: hGIPR cAMP Rel EC50 nM (SEM, n).

The target in assay [2] is T2, human Gcg receptor (Homo sapiens, UniProt P47871).
T2 construct: expressed in transfected cells; crude membranes
T2 sequence (P47871 26-477): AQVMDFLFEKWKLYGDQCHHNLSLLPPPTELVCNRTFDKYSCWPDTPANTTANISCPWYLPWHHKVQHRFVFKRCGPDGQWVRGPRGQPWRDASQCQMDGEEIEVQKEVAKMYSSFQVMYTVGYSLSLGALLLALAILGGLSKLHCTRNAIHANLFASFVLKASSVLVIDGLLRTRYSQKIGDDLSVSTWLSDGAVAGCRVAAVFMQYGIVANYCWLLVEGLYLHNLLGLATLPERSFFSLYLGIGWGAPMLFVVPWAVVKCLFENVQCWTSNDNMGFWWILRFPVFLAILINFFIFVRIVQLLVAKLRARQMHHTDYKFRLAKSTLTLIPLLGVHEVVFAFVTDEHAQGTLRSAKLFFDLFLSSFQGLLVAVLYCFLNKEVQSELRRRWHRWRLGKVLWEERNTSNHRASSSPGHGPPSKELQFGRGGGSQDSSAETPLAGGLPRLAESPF
Description: [125I]-Glucagon binding (SPA), human Gcg receptor. To be noted: read-out: hGLcgR Ki, nM (SEM, n). The essentials:
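Cell pellets were lysed in hypotonic Tris buffer, pH 7.5, homogenized, and spun at low then high speed to give crude membranes. Ki was derived from the fitted IC50.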

For assay [3], the target named is human GLP-1R (Homo sapiens, UniProt P43220). The assay can be described thus: [125I]-GLP-1 binding (SPA), human GLP-1 receptor. More on the design: expressed in transfected cells; crude membranes. The settings on record: read-out: hGLP1R Ki, (nM) (SEM, n). The gist of the method:
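Ki values are geometric means with SEM over independent replicates on different days, derived from IC50s fitted by four-parameter nonlinear regression. The assay used crude cell membranes in HEPES buffer, pH 7.4, containing CaCl2, MgCl2, bacitracin and TWEEN-20.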

Assay [4] concerns the target human GLP-1 receptor (GLP-1R) (Homo sapiens, UniProt P43220). Description: cAMP pharmacological functional assay in presence of casein, hGLP-1R. It is filed as cell-based. To be noted: HEK293 cells expressing hGLP-1R, 0.1% Casein, geometric mean; read-out: hGLP1R cAMP Rel EC50 nM (SEM, n).
Assay [5] has as its target T3, human GIP receptor (Homo sapiens, UniProt P48546).
T3 construct: expressed in transfected cells; crude membranes
T3 sequence (P48546 22-466): T1 sequence (P48546 22-466)
The assay can be described thus: [125I]-GIP binding (SPA), human GIP receptor. The settings on record: read-out: hGIPR Ki, nM (SEM, n).

Numbered stars: 1 amine (or outer) side, 2 acyl side, 3 side chain; on linkers, the order of the positions; unused ones are H or OH. Square brackets hold non-standard residues; d marks the D form. Side chains are listed from the residue outwards. Peptide text beside a SMILES is read from it. * marks the point of attachment. C20 diacid = O=C(O)CCCCCCCCCCCCCCCCCCC(=O)*; C18 diacid = O=C(O)CCCCCCCCCCCCCCCCC(=O)*; αMePhe(2-F) = C[C@](N)(Cc1ccccc1F)C(=O)O; γGlu = O=C(O)[C@H](CCC(=O)[*:2])N[*:1]; 4Pal = N[C@@H](Cc1ccncc1)C(=O)O; αMeL = CC(C)C[C@](C)(N)C(=O)O; Orn = NCCC[C@H](N)C(=O)O; AEEA = NCCOCCOCC(=O)O; Aib = CC(C)(N)C(=O)O

human GLP-1R, sequence (P43220 24-463): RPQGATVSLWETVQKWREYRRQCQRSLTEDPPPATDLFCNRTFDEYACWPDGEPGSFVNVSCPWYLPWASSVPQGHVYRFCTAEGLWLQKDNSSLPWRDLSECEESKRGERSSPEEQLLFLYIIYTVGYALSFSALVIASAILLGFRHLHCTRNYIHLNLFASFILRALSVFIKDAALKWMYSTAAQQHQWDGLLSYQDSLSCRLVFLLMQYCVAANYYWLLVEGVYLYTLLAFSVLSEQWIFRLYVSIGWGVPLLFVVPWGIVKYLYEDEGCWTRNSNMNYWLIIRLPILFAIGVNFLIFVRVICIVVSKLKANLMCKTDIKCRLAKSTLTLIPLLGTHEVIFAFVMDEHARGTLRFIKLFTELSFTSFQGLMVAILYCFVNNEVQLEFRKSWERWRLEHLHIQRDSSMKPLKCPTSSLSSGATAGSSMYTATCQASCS
human GLP-1 receptor (GLP-1R), sequence (P43220 24-463): as above

In the case of `CC[C@H](C)[C@H](NC(=O)[C@H](CC(C)C)NC(=O)[C@H](Cc1ccc(O)cc1)NC(=O)[C@H](CCC(=O)O)NC(=O)[C@H](CC(C)C)NC(=O)[C@H](Cc1ccccc1)NC(=O)[C@H](C)NC(=O)C(C)(C)NC(=O)[C@H](CCC(N)=O)NC(=O)[C@H](C)NC(=O)[C@H](CCCCNC(=O)COCCOCCNC(=O)COCCOCCNC(=O)CC[C@H](NC(=O)CCCCCCCCCCCCCCCCC(=O)O)C(=O)O)NC(=O)[C@H](CCCCN)NC(=O)[C@H](CC(=O)O)NC(=O)[C@H](CC(C)C)NC(=O)[C@H](CC(C)C)NC(=O)[C@@H](NC(=O)[C@H](CO)NC(=O)[C@H](Cc1ccc(O)cc1)NC(=O)[C@H](CC(=O)O)NC(=O)[C@H](CO)NC(=O)[C@@H](NC(=O)[C@H](Cc1ccccc1)NC(=O)[C@@H](NC(=O)CNC(=O)[C@H](CCC(=O)O)NC(=O)C(C)(C)NC(=O)[C@@H](N)Cc1ccc(O)cc1)[C@@H](C)O)[C@@H](C)O)[C@@H](C)CC)C(=O)N[C@@H](CCC(=O)O)C(=O)NCC(=O)NCC(=O)N1CCC[C@H]1C(=O)N[C@@H](CO)C(=O)N[C@@H](CO)C(=O)NCC(N)=O` [Example 299] (H-Y[Aib]EGTFTSDYSILLDKK([AEEA-AEEA-γGlu-C18 diacid])AQ[Aib]AFLEYLIEGGPSSG-NH2), the EC50 in assay [1] is 0.932 nM; in assay [4] it was 2.54 nM. Besides, the Ki in assay [2] was greater than 1040 nM; in assay [3], 54.3 nM; in assay [5] it was 0.734 nM.

As to `CC[C@H](C)[C@H](NC(=O)[C@H](CC(C)C)NC(=O)[C@H](Cc1ccc(O)cc1)NC(=O)[C@H](CCC(=O)O)NC(=O)[C@@H](NC(=O)[C@H](Cc1ccccc1)NC(=O)[C@H](C)NC(=O)C(C)(C)NC(=O)[C@H](CCC(N)=O)NC(=O)[C@H](C)NC(=O)[C@H](CCCCNC(=O)COCCOCCNC(=O)COCCOCCNC(=O)CC[C@H](NC(=O)CCCCCCCCCCCCCCCCCCC(=O)O)C(=O)O)NC(=O)[C@H](CCCCN)NC(=O)[C@H](CC(=O)O)NC(=O)[C@H](CC(C)C)NC(=O)[C@H](CC(C)C)NC(=O)[C@@H](NC(=O)[C@H](CO)NC(=O)[C@H](Cc1ccc(O)cc1)NC(=O)[C@H](CC(=O)O)NC(=O)[C@H](CO)NC(=O)[C@@H](NC(=O)[C@H](Cc1ccccc1)NC(=O)[C@@H](NC(=O)CNC(=O)[C@H](CCC(=O)O)NC(=O)[C@]1(C)CCCN1C(=O)[C@@H](N)Cc1ccc(O)cc1)[C@@H](C)O)[C@@H](C)O)[C@@H](C)CC)[C@@H](C)CC)C(=O)N[C@@H](CCC(=O)O)C(=O)NCC(=O)NCC(=O)N1CCC[C@H]1C(=O)N[C@@H](CO)C(=O)N[C@@H](CO)C(=O)NCC(=O)N[C@@H](C)C(=O)N1CCC[C@H]1C(=O)N1CCC[C@H]1C(=O)N1CCC[C@H]1C(=O)N[C@@H](CO)C(N)=O` [Example 87], the figures for the EC50 in assay [1] and in assay [4] were 0.0945 nM and 0.0801 nM, respectively. Moreover, the Ki in assay [2] is 278 nM; in assay [3], 1.79 nM; in assay [5] it was 0.034 nM.

With `CC[C@H](C)[C@H](NC(=O)[C@H](CC(C)C)NC(=O)[C@H](Cc1ccc(O)cc1)NC(=O)[C@@H](CCC(=O)O)NC(=O)[C@@H](NC(=O)[C@H](Cc1ccccc1)NC(=O)[C@H](CCC(=O)O)NC(=O)C(C)(C)NC(=O)[C@H](CCC(N)=O)NC(=O)[C@H](C)NC(=O)[C@H](CCCCNC(=O)COCCOCCNC(=O)COCCOCCNC(=O)CC[C@H](NC(=O)CCCCCCCCCCCCCCCCC(=O)O)C(=O)O)NC(=O)[C@H](CCCN)NC(=O)[C@H](CC(=O)O)NC(=O)[C@H](CC(C)C)NC(=O)[C@](C)(CC(C)C)NC(=O)[C@@H](NC(=O)[C@H](CO)NC(=O)[C@H](Cc1ccncc1)NC(=O)[C@H](CC(=O)O)NC(=O)[C@H](CO)NC(=O)[C@@H](NC(=O)[C@](C)(Cc1ccccc1F)NC(=O)[C@@H](NC(=O)CNC(=O)[C@H](CCC(=O)O)NC(=O)C(C)(C)NC(=O)[C@@H](N)Cc1ccc(O)cc1)[C@@H](C)O)[C@@H](C)O)[C@@H](C)CC)[C@@H](C)CC)C(=O)N[C@@H](CCC(=O)O)C(=O)NCC(=O)NCC(=O)N1CCC[C@H]1C(=O)N[C@@H](CO)C(=O)N[C@@H](CO)C(=O)NCC(=O)N[C@@H](C)C(=O)N1CCC[C@H]1C(=O)N1CCC[C@H]1C(=O)N1CCC[C@H]1C(=O)N[C@@H](CO)C(N)=O` [Example 232] (H-Y[Aib]EGT[αMePhe(2-F)]TSD[4Pal]SI[αMeL]LD[Orn]K([AEEA-AEEA-γGlu-C18 diacid])AQ[Aib]EFI[dE]YLIEGGPSSGAPPPS-NH2), the EC50 stood at 0.027 nM in assay [1] and 0.0724 nM in assay [4]. Also, the Ki in assay [2] is greater than 1150 nM; in assay [3], 5.62 nM; in assay [5] it was 0.0544 nM.

For the compound `CC[C@H](C)[C@H](NC(=O)[C@H](CC(C)C)NC(=O)[C@H](Cc1ccc(O)cc1)NC(=O)[C@H](CCC(=O)O)NC(=O)[C@@H](NC(=O)[C@H](Cc1ccccc1)NC(=O)[C@H](C)NC(=O)C(C)(C)NC(=O)[C@H](CCC(N)=O)NC(=O)[C@H](C)NC(=O)[C@H](CCCCNC(=O)COCCOCCNC(=O)COCCOCCNC(=O)CC[C@H](NC(=O)CCCCCCCCCCCCCCCCCCC(=O)O)C(=O)O)NC(=O)[C@H](CCCCN)NC(=O)[C@H](CC(=O)O)NC(=O)[C@H](CC(C)C)NC(=O)[C@H](CC(C)C)NC(=O)[C@@H](NC(=O)[C@H](CO)NC(=O)[C@H](Cc1ccc(O)cc1)NC(=O)[C@H](CC(=O)O)NC(=O)[C@H](CO)NC(=O)[C@@H](NC(=O)[C@H](Cc1ccccc1)NC(=O)[C@@H](NC(=O)CNC(=O)[C@H](CCCC(=O)O)NC(=O)C(C)(C)NC(=O)[C@@H](N)Cc1ccc(O)cc1)[C@@H](C)O)[C@@H](C)O)[C@@H](C)CC)[C@@H](C)CC)C(=O)N[C@@H](CCC(=O)O)C(=O)NCC(=O)NCC(=O)N1CCC[C@H]1C(=O)N[C@@H](CO)C(=O)N[C@@H](CO)C(=O)NCC(=O)N[C@@H](C)C(=O)N1CCC[C@H]1C(=O)N1CCC[C@H]1C(=O)N1CCC[C@H]1C(=O)N[C@@H](CO)C(N)=O` [Example 89], the EC50 in assay [1] turned out to be 0.119 nM; in assay [4], 0.335 nM. The inhibition constant (Ki) in assay [2] is 324 nM; in assay [3], 2.64 nM; in assay [5], 0.045 nM.

For the compound `CC[C@H](C)[C@H](NC(=O)[C@H](CC(C)C)NC(=O)[C@H](Cc1ccc(O)cc1)NC(=O)[C@H](CO)NC(=O)[C@@H](NC(=O)[C@H](Cc1ccccc1)NC(=O)[C@H](CCC(=O)O)NC(=O)C(C)(C)NC(=O)[C@H](CCC(N)=O)NC(=O)[C@H](C)NC(=O)[C@H](CCCCNC(=O)COCCOCCNC(=O)COCCOCCNC(=O)CC[C@H](NC(=O)CCCCCCCCCCCCCCCCCCC(=O)O)C(=O)O)NC(=O)[C@H](CCC(=O)O)NC(=O)[C@H](CC(=O)O)NC(=O)[C@H](CC(C)C)NC(=O)[C@](C)(CC(C)C)NC(=O)[C@@H](NC(=O)[C@H](CO)NC(=O)[C@H](Cc1ccc(O)cc1)NC(=O)[C@H](CC(=O)O)NC(=O)[C@H](CO)NC(=O)[C@@H](NC(=O)[C@](C)(Cc1ccccc1F)NC(=O)[C@@H](NC(=O)CNC(=O)[C@H](CCC(=O)O)NC(=O)C(C)(C)NC(=O)[C@@H](N)Cc1ccc(O)cc1)[C@@H](C)O)[C@@H](C)O)[C@@H](C)CC)[C@@H](C)CC)C(=O)N[C@@H](CCC(=O)O)C(=O)NCC(=O)NCC(=O)N1CCC[C@H]1C(=O)N[C@@H](CO)C(=O)N[C@@H](CO)C(=O)NCC(=O)N[C@@H](C)C(=O)N1CCC[C@H]1C(=O)N1CCC[C@H]1C(=O)N1CCC[C@H]1C(=O)N[C@@H](CO)C(N)=O` [Example 150] (H-Y[Aib]EGT[αMePhe(2-F)]TSDYSI[αMeL]LDEK([AEEA-AEEA-γGlu-C20 diacid])AQ[Aib]EFISYLIEGGPSSGAPPPS-NH2), the EC50 in assay [1] worked out at 0.0511 nM; in assay [4], 0.0575 nM. Further, the Ki is 63.2 nM in assay [2], 30.5 nM in assay [3] and 0.0649 nM in assay [5].
